Results: patent US7704986B2, “Vitamin D3 analogues for the prevention and treatment of bone disorders” (K.U. Leuven Research and Development, priority 2004, dated 2010)

Tests used:
vitamin D receptor (VDR) = molecular target: T1, vitamin D receptor (VDR) (Sus scrofa, UniProt A3RGC1); assay: Affinity for vitamin D receptor: competition with [3H]1α,25(OH)2D3; assay type: binding; conditions: pig intestinal mucosa supernatant, 4° C. 20 hours; 1α,25(OH)2D3 = 100%
T1 construct: high speed supernatant from intestinal mucosa homogenates obtained from normal pigs; from tissue; host or cells: pig intestinal mucosa (high speed supernatant of homogenate)
T1 sequence (A3RGC1 1-427): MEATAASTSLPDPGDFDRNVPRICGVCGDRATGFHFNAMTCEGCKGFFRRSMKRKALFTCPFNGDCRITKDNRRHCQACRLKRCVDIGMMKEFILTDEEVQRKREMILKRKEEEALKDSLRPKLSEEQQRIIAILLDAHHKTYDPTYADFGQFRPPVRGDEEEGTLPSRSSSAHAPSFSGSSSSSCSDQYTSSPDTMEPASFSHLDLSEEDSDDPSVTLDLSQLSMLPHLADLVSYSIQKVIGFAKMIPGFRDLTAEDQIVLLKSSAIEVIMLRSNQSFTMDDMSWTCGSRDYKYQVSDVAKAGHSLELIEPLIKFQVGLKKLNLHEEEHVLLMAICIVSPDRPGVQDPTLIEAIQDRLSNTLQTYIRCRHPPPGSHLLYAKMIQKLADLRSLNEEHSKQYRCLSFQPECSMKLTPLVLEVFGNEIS
Description: The methods used herein to evaluate the binding properties of vitamin D analogues are state of the art techniques used for steroid hormone (including vitamin D) binding assays. […] Incubation was performed at 4° C. for 20 hours and phase separation was obtained by addition of dextran-coated charcoal.

[1] = molecular target: T2, human vitamin D binding protein (hDBP) (Homo sapiens, UniProt P02774); assay: Affinity for human vitamin D binding protein; conditions: hDBP 0.18 μM, 4° C. 3 hours; 1,25(OH)2D3 = 100
T2 sequence (P02774 17-474): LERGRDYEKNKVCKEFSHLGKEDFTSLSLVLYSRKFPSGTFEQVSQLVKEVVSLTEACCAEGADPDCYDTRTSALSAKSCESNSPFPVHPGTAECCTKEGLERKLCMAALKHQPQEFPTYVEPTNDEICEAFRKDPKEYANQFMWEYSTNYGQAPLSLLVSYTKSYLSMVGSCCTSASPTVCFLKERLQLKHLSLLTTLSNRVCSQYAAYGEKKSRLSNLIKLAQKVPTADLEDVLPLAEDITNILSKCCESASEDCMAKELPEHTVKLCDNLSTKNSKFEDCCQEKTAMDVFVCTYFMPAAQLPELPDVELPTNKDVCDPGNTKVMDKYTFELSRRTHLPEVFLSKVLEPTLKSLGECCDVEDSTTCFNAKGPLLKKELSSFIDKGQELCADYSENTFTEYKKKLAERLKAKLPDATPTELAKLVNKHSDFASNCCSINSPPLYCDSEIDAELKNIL
Description: Binding of 1α,25(OH)2D3 analogues to hDBP was performed at 4° C. […] Phase separation was then obtained by the addition of 0.5 ml of cold dextran-coated charcoal.

NMRI mice = assay: In vivo activity: serum and femur calcium after 7 daily i.p. injections; conditions: for Serum calcium vs. control (%) / femur calcium vs. control (%): 7 days
Description: Eight weeks old, male NMRI mice were fed a vitamin D-replete diet (0.2% calcium, 1% phosphate, 2000 U vitamin D/kg; Hope Farms, Woerden, The Netherlands). Groups of six mice were intraperitoneally injected daily during 7 consecutive days with different doses of 1,25(OH)2D3 (0.2 and 0.4 μg/kg/day) or analogues. The control group was injected with vehicle (arachis oil). The average weight of each group of 6 mice was determined at the beginning and at the end of the experiment. The following parameters were evaluated: serum calcium and femur calcium. Serum calcium was measured by a microcolorimetric assay (Sigma, St. Louis, Mo.). Femurs were removed and femur calcium content was measured in HCl-dissolved bone ash (obtained by heating for 24 hours in an oven at 100° C.), using the same technique as for serum calcium. Student's t-tests were carried out to detect significant differences; p<0.05 was accepted as significant. […]

[2] = dose 0.2 μg/kg/d i.p., * in cell = P < 0.05
[3] = dose 0.4 μg/kg/d i.p., * in cell = P < 0.05
[4] = Table 6, dose 0.4 μg/kg/day, * in cell = p < 0.05

| Structure (SMILES) | VDR (relative affinity) (vitamin D receptor (VDR)) [%] | DBP (relative affinity) [1] [%] | Serum calcium vs. control (%) (NMRI mice; [2]) | femur calcium vs. control (%) (NMRI mice; [2]) | Serum calcium vs. control (%) (NMRI mice; [3]) | femur calcium vs. control (%) (NMRI mice; [3]) | other results |
| --- | --- | --- | --- | --- | --- | --- | --- |
| C=C1/C(=C\C=C\[C@@H]2CC[C@](C)([C@@H](C)CC#CC(O)(C(F)(F)F)C(F)(F)F)C2(C)C)C[C@@H](O)C[C@@H]1O [(1R,3S)-5-((Z,2E)-3-((1S,3R)-3-((1S)-6,6,6-trifluoro-5-hydroxy-1-methyl-5-trifluoromethyl-3-hexynyl)-2,2,3-trimethylcyclopentyl)-2-propenylidene)-4-methylenecyclohexane-1,3-diol] | 75 | 2 | 103% | 117* % |  |  |  |
| C=C1/C(=C\C=C\[C@@H]2CC[C@](C)([C@H](C)CCCC(O)(C(F)(F)F)C(F)(F)F)C2(C)C)C[C@@H](O)C[C@@H]1O [(1R,3S)-5-((Z,2E)-3-((1S,3R)-3-((1R)-6,6,6-trifluoro-5-hydroxy-1-methyl-5-(trifluoromethyl)hexyl)-2,2,3-trimethylcyclopentyl)-2-propenylidene)-4-methylenecyclohexane-1,3-diol] | 30 | 40 |  |  | 98% | 114* % |  |
| C=C1/C(=C\C=C\[C@@H]2CC[C@](C)([C@H](C)CC#CC(C)(C)O)C2(C)C)C[C@@H](O)C[C@@H]1O [(1R,3S)-5-((Z,2E)-3-((1S,3R)-3-((1R)-5-hydroxy-1,5-dimethyl-3-hexynyl)-2,2,3-trimethylcyclopentyl)-2-propenylidene)-4-methylenecyclohexane-1,3-diol] | 60 | 0 |  |  |  |  | Serum calcium vs. control (%) (NMRI mice; dose 2 μg/kg/d i.p.): 105%; femur calcium vs. control (%) (NMRI mice; dose 2 μg/kg/d i.p., * in cell = P < 0.05): 113* % |
| C=C1/C(=C\C=C2/CCC[C@]3(C)[C@@H]([C@H](C)CCCC(C)(C)O)CC[C@@H]23)C[C@@H](O)C[C@@H]1O [1,25(OH)2D3, Calcitriol, reference compound] |  |  | 121* % | 97% | 136* % | 94* % | Femur calcium versus control (%) (NMRI mice; Table 6, dose 0.2 μg/kg/day): 97%; Serum calcium versus control (%) (NMRI mice; Table 6, dose 0.2 μg/kg/day, * in cell = p < 0.05): 121* %; Femur calcium versus control (%) (NMRI mice; [4]): 94* %; Serum calcium versus control (%) (NMRI mice; [4]): 136* % |
| CCC(O)(CC)CCC[C@H](C)[C@@]1(C)CC[C@@H](/C=C/C=C2C[C@@H](O)C[C@H](O)C2)C1(C)C [(1R,3R)-5-((E)-3-((1S,3R)-3-((1S)-5-ethyl-5-hydroxy-1-methylheptyl)-2,2,3-trimethylcyclopentyl)-2-propenylidene)cyclohexane-1,3-diol] | 60 | <0.1 |  |  |  |  |  |
| CC(C)[C@H](O)CC[C@H](C)[C@@]1(C)CC[C@@H](/C=C/C=C2C[C@@H](O)C[C@H](O)C2)C1(C)C (stereo in doubt) [example 19, (1R,3R)-5-{(E)-3-[(S)-3-((S)-4-hydroxy-1-(S)-methyl-5-methyl-hexyl)-2,2,3-trimethyl-cyclopentyl]-allylidene}-cyclohexane-1,3-diol] | 3 | 4 |  |  |  |  | Serum calcium vs. control (%) (NMRI mice; dose 5 μg/kg/d i.p.): 100%; femur calcium vs. control (%) (NMRI mice; dose 5 μg/kg/d i.p., * in cell = P < 0.05): 115* % |
| C=C1/C(=C\C=C\[C@@H]2CC[C@](C)([C@@H](C)CCCC(O)(C(F)(F)F)C(F)(F)F)C2(C)C)C[C@@H](O)C[C@@H]1O [(1R,3S)-5-((Z,2E)-3-((1S,3R)-3-((1S)-6,6,6-trifluoro-5-hydroxy-1-methyl-5-(trifluoromethyl)hexyl)-2,2,3-trimethylcyclopentyl)-2-propenylidene)-4-methylenecyclohexane-1,3-diol] | 60 | 6 |  |  |  |  | Serum calcium vs. control (%) (NMRI mice; dose 0.05 μg/kg/d i.p.): 106%; femur calcium vs. control (%) (NMRI mice; dose 0.05 μg/kg/d i.p., * in cell = P < 0.05): 112* % |
| C=C1/C(=C\C=C\[C@@H]2CC[C@](C)([C@@H](C)CC[C@@H](O)C(C)C)C2(C)C)C[C@@H](O)C[C@@H]1O [example 20, (1R,3S)-5-((Z,2E)-3-((1S,3R)-3-((1S,4R)-4-hydroxy-1,5-dimethylhexyl)-2,2,3-trimethylcyclopentyl)-2-propenylidene)-4-methylenecyclohexane-1,3-diol] | 9 | 4 |  |  |  |  | Serum calcium vs. control (%) (NMRI mice; dose 10 μg/kg/d i.p.): 99%; femur calcium vs. control (%) (NMRI mice; dose 10 μg/kg/d i.p., * in cell = P < 0.05): 111* % |
| C=C1/C(=C\C=C\[C@@H]2CC[C@](C)([C@@H](C)CC[C@H](O)C(C)C)C2(C)C)C[C@@H](O)C[C@@H]1O [example 24, (1R,3S)-5-((Z,2E)-3-((1S,3R)-3-((1S,4S)-4-hydroxy-1,5-dimethylhexyl)-2,2,3-trimethylcyclopentyl)-2-propenylidene)-4-methylenecyclohexane-1,3-diol] | 20 | 4 | 98% | 112* % |  |  |  |
| C=C1/C(=C\C=C\[C@@H]2CC[C@](C)([C@H](C)CC#CC(O)(C(F)(F)F)C(F)(F)F)C2(C)C)C[C@@H](O)C[C@@H]1O [(1R,3S)-5-((Z,2E)-3-((1S,3R)-3-((1R)-6,6,6-trifluoro-5-hydroxy-1-methyl-5-trifluoromethyl-3-hexynyl)-2,2,3-trimethylcyclopentyl)-2-propenylidene)-4-methylenecyclohexane-1,3-diol] | 60 | 0 |  |  | 94% | 115* % |  |
